How the values were obtained:
Assay in all cases: adenylation: pyrophosphate exchange or coupled pyrophosphate release assay
Type in all cases: biochemical
Conditions in all cases: adenylation step; ATP
[1] = molecular target: T1, glycyl-tRNA synthetase (GlyRS, class IIC) (Escherichia coli, UniProt P00960)
T1 sequence (P00960 1-303): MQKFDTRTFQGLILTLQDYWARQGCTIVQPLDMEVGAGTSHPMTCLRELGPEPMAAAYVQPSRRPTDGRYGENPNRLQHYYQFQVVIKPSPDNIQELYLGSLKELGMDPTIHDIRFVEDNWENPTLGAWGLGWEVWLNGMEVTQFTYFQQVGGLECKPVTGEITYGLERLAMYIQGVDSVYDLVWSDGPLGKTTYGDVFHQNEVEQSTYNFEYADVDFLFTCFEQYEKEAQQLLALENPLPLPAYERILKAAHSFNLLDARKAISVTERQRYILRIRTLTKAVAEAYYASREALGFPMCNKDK
T1 sequence (P00961 2-689 partner): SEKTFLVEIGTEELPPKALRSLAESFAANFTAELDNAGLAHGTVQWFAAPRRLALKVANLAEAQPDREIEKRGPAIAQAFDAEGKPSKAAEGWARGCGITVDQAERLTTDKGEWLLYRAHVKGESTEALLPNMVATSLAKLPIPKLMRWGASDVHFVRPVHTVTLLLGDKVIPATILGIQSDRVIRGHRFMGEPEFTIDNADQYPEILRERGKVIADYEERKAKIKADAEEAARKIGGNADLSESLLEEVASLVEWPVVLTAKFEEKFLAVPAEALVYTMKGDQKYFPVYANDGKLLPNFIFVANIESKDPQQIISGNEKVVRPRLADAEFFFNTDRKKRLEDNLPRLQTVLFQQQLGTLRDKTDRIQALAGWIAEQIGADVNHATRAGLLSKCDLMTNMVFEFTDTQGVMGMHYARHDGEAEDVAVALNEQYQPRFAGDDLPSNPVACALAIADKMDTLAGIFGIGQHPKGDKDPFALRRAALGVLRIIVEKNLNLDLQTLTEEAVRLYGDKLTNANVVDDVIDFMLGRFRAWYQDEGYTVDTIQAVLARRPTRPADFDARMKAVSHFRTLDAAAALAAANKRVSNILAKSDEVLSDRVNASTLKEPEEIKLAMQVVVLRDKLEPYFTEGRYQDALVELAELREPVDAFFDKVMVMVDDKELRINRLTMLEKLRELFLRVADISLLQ

[2] = molecular target: phenylalanyl-tRNA synthetase (PheRS, class IIC) (Escherichia coli, UniProt P08312)
Chain of phenylalanyl-tRNA synthetase (PheRS, class IIC) (P08312 whole entry): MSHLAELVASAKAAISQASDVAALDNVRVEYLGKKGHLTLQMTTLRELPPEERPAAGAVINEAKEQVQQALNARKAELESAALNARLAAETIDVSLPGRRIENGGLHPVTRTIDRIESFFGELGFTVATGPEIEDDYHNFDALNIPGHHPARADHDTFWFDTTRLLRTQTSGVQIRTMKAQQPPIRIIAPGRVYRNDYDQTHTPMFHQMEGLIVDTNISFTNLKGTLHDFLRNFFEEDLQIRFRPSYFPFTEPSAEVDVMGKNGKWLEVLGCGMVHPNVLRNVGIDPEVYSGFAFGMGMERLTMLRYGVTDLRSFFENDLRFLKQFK
Chain of phenylalanyl-tRNA synthetase (PheRS, class IIC) (P07395 whole entry partner): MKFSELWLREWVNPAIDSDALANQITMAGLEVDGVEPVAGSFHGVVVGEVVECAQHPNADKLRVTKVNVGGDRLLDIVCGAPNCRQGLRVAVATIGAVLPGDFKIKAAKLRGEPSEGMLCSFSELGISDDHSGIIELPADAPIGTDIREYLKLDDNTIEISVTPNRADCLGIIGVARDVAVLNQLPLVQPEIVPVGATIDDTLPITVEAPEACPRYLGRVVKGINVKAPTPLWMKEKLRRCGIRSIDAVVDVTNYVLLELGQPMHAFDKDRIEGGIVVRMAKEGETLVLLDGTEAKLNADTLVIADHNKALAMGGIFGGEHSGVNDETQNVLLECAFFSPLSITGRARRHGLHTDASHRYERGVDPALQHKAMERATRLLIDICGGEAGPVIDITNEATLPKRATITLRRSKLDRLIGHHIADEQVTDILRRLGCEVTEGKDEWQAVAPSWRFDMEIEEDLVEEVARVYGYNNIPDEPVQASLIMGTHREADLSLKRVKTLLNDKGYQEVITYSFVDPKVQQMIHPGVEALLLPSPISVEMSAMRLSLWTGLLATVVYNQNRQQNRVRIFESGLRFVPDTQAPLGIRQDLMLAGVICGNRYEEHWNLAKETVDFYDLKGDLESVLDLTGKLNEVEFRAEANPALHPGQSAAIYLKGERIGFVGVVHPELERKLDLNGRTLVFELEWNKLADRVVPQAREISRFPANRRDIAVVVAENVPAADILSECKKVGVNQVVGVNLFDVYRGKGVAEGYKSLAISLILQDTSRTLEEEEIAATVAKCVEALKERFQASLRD

[3] = molecular target: T2, tyrosyl-tRNA synthetase (TyrRS, class IC) (Escherichia coli, UniProt P0AGJ9)
T2 sequence (P0AGJ9 2-424): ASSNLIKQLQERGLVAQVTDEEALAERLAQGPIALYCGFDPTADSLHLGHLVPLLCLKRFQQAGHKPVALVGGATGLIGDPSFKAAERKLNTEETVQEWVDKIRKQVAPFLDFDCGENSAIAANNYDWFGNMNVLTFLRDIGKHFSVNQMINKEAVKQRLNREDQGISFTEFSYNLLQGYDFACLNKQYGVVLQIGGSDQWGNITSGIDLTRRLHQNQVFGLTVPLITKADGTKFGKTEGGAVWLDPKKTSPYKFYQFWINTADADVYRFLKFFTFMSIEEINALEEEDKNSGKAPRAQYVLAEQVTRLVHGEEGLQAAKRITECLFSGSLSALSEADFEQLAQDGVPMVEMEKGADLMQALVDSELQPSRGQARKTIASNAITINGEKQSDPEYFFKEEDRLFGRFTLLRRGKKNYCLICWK

Structure (SMILES) | KM [1] | KM [2] | other results
NCC(=O)O [α-Gly] | GlyRS and PheRS (class II) tolerate the expanded β^3-amino acid backbone |  | 
NC(CC(=O)O)Cc1ccccc1 (stereo not drawn) [β^3-Phe] |  | GlyRS and PheRS (class II) tolerate the expanded β^3-amino acid backbone | 
N[C@@H](Cc1ccccc1)C(=O)O [α-Phe] |  | GlyRS and PheRS (class II) tolerate the expanded β^3-amino acid backbone | 
NCCC(=O)O [β^3-Gly] | GlyRS and PheRS (class II) tolerate the expanded β^3-amino acid backbone |  | 
N[C@@H](Cc1ccc(O)cc1)C(=O)O [α-Tyr] |  |  | KM [3]: GluRS and TyrRS (both class I) show the greatest selection against β^3-amino acid substrates

Reference: PMC6640638 (Journal of the American Chemical Society, 2016)
